Assay results reported in PubChem BioAssay (NCI).
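Grown in 96-well plates, cells were treated for 48 hours with each compound at five concentrations. Insufficient inhibition: endpoint recorded as highest concentration tested. TGI marks complete inhibition of growth.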

Legend:
Assay in all cases: growth of human tumour cells (NCI), 48 h
A498 renal = system: A498 renal
SK-MEL-5 melanoma = system: SK-MEL-5 melanoma
MCF7 breast = system: MCF7 breast
HL-60(TB) leukemia = system: HL-60(TB) leukemia
HT29 colon = system: HT29 colon
MDA-MB-231 breast = system: MDA-MB-231 breast
MALME-3M melanoma = system: MALME-3M melanoma
NCI-H522 lung = system: NCI-H522 lung
SNB-75 CNS = system: SNB-75 CNS
SK-MEL-28 melanoma = system: SK-MEL-28 melanoma

Row | Compound | TGI (A498 renal) [µM] | TGI (SK-MEL-5 melanoma) [µM] | TGI (MCF7 breast) [µM] | TGI (HL-60(TB) leukemia) [µM] | TGI (HT29 colon) [µM] | TGI (MDA-MB-231 breast) [µM] | TGI (MALME-3M melanoma) [µM] | TGI (NCI-H522 lung) [µM] | TGI (SNB-75 CNS) [µM] | TGI (SK-MEL-28 melanoma) [µM]
1 | CN(C)c1ccc(C(=NN)c2ccc(N(C)C)cc2)cc1 | > 81.7 | > 100 | > 100 | 3.35 | > 21.8 | 10 | > 100 | 18.7 | 2.83 | > 100
2 | Oc1ccc(-c2cn3cc(C(F)(F)F)ccc3n2)cc1 | > 100 | > 100 | > 100 | > 100 | > 100 | > 100 | > 100 | 88 | > 100 | > 100
3 | COC(=O)[C@@H]1Cc2cc(O)c(O)cc2C2(CCN(C)CC2)O1 | > 10 | > 10 | > 10 | > 10 | > 10 | > 10 | > 10 | > 10 | > 10 | > 10
4 | CC(C)CN(CC#N)CC(C)C | > 100 | > 100 | > 100 | > 100 | > 100 | > 100 | > 100 | > 100 | > 100 | > 100
5 | CC(=O)O[C@@H]1O[Si](C(C)(C)C)(C(C)(C)C)[C@H](C)[C@H]1C | > 100 | > 100 | 83 | 44 | 55.6 | > 100 | 90.1 | > 100 | > 100 | > 100
6 | NC(N)=NC(N)=Nc1ccccc1 (tested in a mixture with another compound) | > 100 | > 100 | > 100 | > 100 | > 100 | > 100 | > 100 | > 100 | > 100 | > 100
7 | CC(=O)OCC(OC(C)=O)C(OC(C)=O)C(OC(C)=O)C(/C=N\Nc1nc2ccccc2c(=O)[nH]1)=N/Nc1nc2ccccc2c(=O)[nH]1 (stereo unspecified) | – | > 100 | > 100 | > 100 | > 100 | > 100 | > 100 | > 100 | > 100 | > 100
8 | NC(=O)C(Nc1ccc(Cl)cc1)c1cc2cc(Br)ccc2nc1Cl (stereo unspecified) | > 50 | > 50 | > 50 | > 50 | > 50 | > 50 | > 50 | > 50 | > 50 | > 50
9 | O=C1C(Cl)C(c2cc3cc(Br)ccc3nc2Cl)N1c1c(Cl)cccc1Cl (stereo unspecified) | > 25 | > 25 | 22.6 | > 25 | > 25 | > 25 | > 25 | 11.3 | > 25 | > 25
10 | O=C(Nc1nc(C23CC4CC(CC(C4)C2)C3)cs1)c1cc2c(ccc3ccccc32)oc1=O | > 100 | > 100 | > 100 | > 100 | > 100 | > 100 | > 100 | > 100 | – | > 100
11 | CC1(C)CN=C(Nc2ccc(F)c(F)c2)S1 | – | > 100 | > 100 | > 100 | > 100 | > 100 | > 100 | > 100 | > 100 | > 100
12 | O=C(Nn1cnn2c(=O)c3ccccc3nc2c1=O)c1ccccc1 | > 100 | > 100 | > 100 | > 100 | > 100 | > 100 | > 100 | > 100 | > 100 | > 100
13 | CN(C)Cc1cc(N=Nc2ccc(Cl)cc2)ccc1O | 31.8 | 27.6 | 31.4 | 32.1 | 26.4 | 32.2 | 27.2 | 26.3 | 28.8 | 29.6
14 | Cn1c(-c2ccc(N=NNc3ccc(-c4n[nH]c(=S)n4C)cc3)cc2)n[nH]c1=S | > 100 | 48.1 | > 100 | > 100 | > 100 | 43.4 | > 100 | > 100 | 35.1 | > 100
15 | CN(C)CCCNC(=O)c1cc(NC(=O)c2cc(NC(=O)[C@@H]3C[C@H]3C(=O)Nc3cc(C(=O)Nc4cc(C(=O)NCCCN(C)C)n(C)c4)n(C)c3)cn2C)cn1C | – | > 100 | > 100 | > 100 | > 100 | > 100 | > 100 | > 100 | > 100 | > 100
16 | CC1OC(O[C@H]2CC[C@]3(C=O)[C@H]4CC[C@]5(C)[C@H](C6=CC(=O)OC6)CC[C@]5(O)[C@@H]4C=C[C@]3(O)C2)CC(O)C1O (stereo partly specified) | 0.611 | 0.359 | 2.71 | 0.689 | 1.5 | 2.57 | 0.361 | 0.241 | 2.31 | 1.7
17 | CCC(=O)NCCc1c2c3c(ccnc3c3ncsc13)-c1ccccc1N2 | > 100 | 34.2 | > 100 | > 13.4 | > 100 | > 68.4 | > 100 | 38.4 | > 88.3 | > 100
18 | COCCOCCOCCOc1ccc(C(C#N)N(CCc2ccccc2)C(=O)c2cc(C(=O)N(CCc3ccccc3)C(C#N)c3ccc(OCCOCCOCCOC)cc3)cc(C(=O)N(CCc3ccccc3)C(C#N)c3ccc(OCCOCCOCCOC)cc3)c2)cc1 (stereo unspecified) | > 100 | > 100 | > 100 | > 100 | > 100 | > 100 | > 100 | > 100 | > 100 | > 100
19 | Cn1c(=O)oc2cc(Br)ccc21 | > 100 | > 100 | > 100 | > 100 | > 100 | > 100 | > 100 | > 100 | > 100 | > 100
20 | COC1(CC[C@H](C)COC2OC(CO)C(O)C(O)C2O)O[C@H]2C[C@H]3[C@@H]4CC=C5C[C@@H](OC6OC(CO)C(O)C(OC7OC(CO)C(O)C(O)C7O)C6OC6OC(C)C(O)C(O)C6O)CC[C@]5(C)[C@H]4CC[C@]3(C)[C@H]2[C@@H]1C (stereo partly specified) | 34.5 | 16.9 | 37.7 | 8.53 | > 21.8 | 15.5 | 6.11 | 7.41 | 7.25 | 6.74
21 | O=c1[nH]c(=O)n(C/C=C/CBr)nc1Br | 26.3 | 25.9 | 22.2 | 24.5 | 26.1 | 14.1 | 27.5 | 14.5 | 24.3 | 28.2
